Earlier results as cited in patent US20080287507A1, “Nicotine containing toiletry waters” (priority 2007, published 2008).

Experiments:
[1] = smoking a cigarette

## CN1CCCC1c1cccnc1 (centres unmarked) [Nicotine, 3-(1-methyl-2-pyrrolidinyl)-pyridine]
[1]
  time for nicotine to reach the brain after inhalation: around ten
other
  single dose that may kill an adult: Approximately 40 milligrams
